Where two headings read alike, the source gives them in different places.

For one data set, the system named is SRS-A release. As to the kind of experiment: Inhibition of SRS-A (leukotriene) release from ovalbumin-challenged sensitized guinea pig lung fragments. The conditions noted are these: for inhibition at 10 µM / inhibition at 3 µM / inhibition at 30 µM / inhibition at 1 µM: Cavia porcellus, read-out: Percent Inhibition of SRS-A Release. The data set is classed as cell-based. Here is the method:
Male, Hartley guinea pigs, usually 1-2 weeks old were sensitized with respect to ovalbumin by intraperitoneal administration of 0.15 ml hyperimmune serum obtained from guinea pigs actively sensitized against ovalbumin. […] Poorly perfused and bloody areas were discarded. Normal lung was cut into 1 mm cubes with a McIlwain tissue chopper, washed with Krebs' solution and divided into 400 mg aliquots. The fragmented tissue was then incubated at 37° C. for 15 minutes in Krebs' solution containing indomethacin to optimize SRS-A release and an appropriate concentration of experimental drug. Antigen (ovalbumin) was then added to make a final concentration of 1×10^-5 g/ml. Fifteen minutes later, the incubation medium was decanted and centrifuged at 3,000 g at 4° C. for 5 minutes. […] Release of SRS-A in the presence of an experimental drug was compared to a control sample and the results expressed as percent inhibition of SRS-A release.

Data set [1] in a line: pKa using 66% aqueous dimethylformamide solution. It is filed as physicochemical. Here is the method: The precipitate was then dissolved in a solution of 1 L of water and 50 g of sodium hydroxide and then heated to about 60° for about ten minutes. Slowly, 50 g of sodium dithionite were added with stirring. After the addition, the reaction solution was kept at about 60° for about three hours. An orange precipitate was formed and the reaction was then allowed to cool to room temperature and sodium chloride was added. The orange solid, which was filtered and then dried, weighed 19 g (70% yield).
The preparation of 2-methyl-5-amino-8-hydroxyquinoline follows the procedure outlined in Example 1, except 15.9 g of 2-methyl-8-hydroxyquinoline were used as the starting material. […] The mass spectrum indicated the expected molecular ion at m/e=174. The pKa was 5.00, using 66% aqueous dimethylformamide solution and the apparent molecular weight was 188.

Setting [2] is: 1 × 10^-5 M, sensitized guinea pig lung fragments, ovalbumin challenge, indomethacin present.
Where [3] appears, read: 3 × 10^-6 M, sensitized guinea pig lung fragments, ovalbumin challenge, indomethacin present.
Setting [4] is: 3 × 10^-5 M, sensitized guinea pig lung fragments, ovalbumin challenge, indomethacin present.
The mark [5] stands for this setting: 1 × 10^-6 M, sensitized guinea pig lung fragments, ovalbumin challenge, indomethacin present.

The term inhibition denotes the change of the read-out against control, counted positive when it falls. As for `C=CCN(C1=CC(=O)c2ncccc2C1=O)c1ccccc1` [6-[N--(2-propenyl)anilino]quinoline-5,8-quinone], the inhibition at 10 µM in the data set with SRS-A release (setting [2]) came to 41%.

In the case of `CCN(C1=CC(=O)c2ncccc2C1=O)c1ccccc1` [Example 15, 6-(N--ethylanilino)quinoline-5,8-quinone], the inhibition at 10 µM in the data set with SRS-A release (setting [2]) was 53%.

Turning to `O=C1C(Nc2cccc(Br)c2)=CC(=O)c2ncccc21` [Example 23, 6-(3-bromoanilino)quinoline-5,8-quinone], the inhibition at 10 µM in the data set with SRS-A release (setting [2]) worked out at 45%.

Turning to `O=C1C(Nc2ccccc2C(F)(F)F)=CC(=O)c2ncccc21` [6-(2-trifluoromethylanilino)quinoline-5,8-quinone], the inhibition at 10 µM in the data set with SRS-A release (setting [2]) came to 52%.

As for `CC(=O)c1cccc(NC2=CC(=O)c3ncccc3C2=O)c1` [Example 25, 6-(3-acetylanilino)quinoline-5,8-quinone], the inhibition at 3 µM in the data set on SRS-A release (setting [3]) came to 36%.

On to `O=C1C(NC2CC2)=CC(=O)c2ncccc21` [6-cyclopropylaminoquinoline-5,8-quinone], for which the inhibition at 30 µM with SRS-A release (setting [4]) was 48%.

As for `Cc1ccccc1NC1=CC(=O)c2ncccc2C1=O` [6-(2-methylanilino)quinoline-5,8-quinone], the inhibition at 30 µM with SRS-A release (setting [4]) was 80%. In addition, the inhibition at 3 µM with SRS-A release (setting [3]) was 17%.

With `O=C1C(Nc2cccc(Cl)c2)=CC(=O)c2ncccc21` [Example 22, 6-(3-chloroanilino)quinoline-5,8-quinone], the inhibition at 10 µM with SRS-A release (setting [2]) came out at 71%.

In the case of `CSc1cccc(NC2=CC(=O)c3ncccc3C2=O)c1` [6-(3-methylthioanilino)quinoline-5,8-quinone], the inhibition at 30 µM in the data set on SRS-A release (setting [4]) worked out at 55%. Besides, in the data set with SRS-A release (setting [3]), the inhibition at 3 µM is 16%.

Turning to `C=CCNC1=CC(=O)c2ncccc2C1=O` [6-(2-propenyl)aminoquinoline-5,8-quinone], in the data set on SRS-A release (setting [2]), the inhibition at 10 µM stood at 53%.

On to “6-(flouroanilino)quinoline-5,8-quinone [Example 16]”, for which, in the data set with SRS-A release (setting [2]), the “Percent Inhibition of SRS-A Release” value was 39%.

With `O=C1C(Nc2ccccc2)=CC(=O)c2ncccc21` [7,10, 6-anilinoquinoline-5,8-quinone], in the data set on SRS-A release, the inhibition at 1 µM came to 28%, the inhibition at 3 µM was 54%, the inhibition at 10 µM turned out to be 79% and the inhibition at 30 µM was 86%.

Regarding `Cc1ccc2c(n1)C(=O)C=C(Nc1ccccc1)C2=O` [Example 11, 2-methyl-6-anilinoquinoline-5,8-quinone], the inhibition at 10 µM in the data set on SRS-A release (setting [2]) was 55%.

Take `O=C1C(Nc2cccc3c2CCCC3)=CC(=O)c2ncccc21` [Example 12, 6-(1-amino-5,6,7,8-tetrahydronaphthalene)quinoline-5,8-quinone]: the inhibition at 10 µM with SRS-A release (setting [2]) is 23%.

As for `O=C1C(Nc2cccc(F)c2)=CC(=O)c2ncccc21` [Example 19, 6-(3-flouroanilino)quinoline-5,8-quinone], in the data set on SRS-A release (setting [2]), the inhibition at 10 µM came out at 76%. In the data set with SRS-A release (setting [5]), the inhibition at 1 µM came out at 13%. Also, the inhibition at 30 µM with SRS-A release (setting [4]) came to 94%.

As a reminder, the pKa is the negative logarithm of the acid dissociation constant. Regarding `Cc1ccc2c(N)ccc(O)c2n1` [Example 2, 2-methyl-5-amino-8-hydroxyquinoline], the pKa in data set [1] was 5.

On to `Cc1cccc(NC2=CC(=O)c3ncccc3C2=O)c1` [Example 20, 6-(3-methylanilino)quinoline-5,8-quinone], for which the inhibition at 10 µM in the data set on SRS-A release (setting [2]) was 69%.

For `CC(C)NC1=CC(=O)c2ncccc2C1=O` [6-isopropylaminoquinoline-5,8-quinone], in the data set on SRS-A release (setting [4]), the inhibition at 30 µM was determined as 28%.

For the compound `CCCN(C)C1=CC(=O)c2ncccc2C1=O` [6-methylpropylaminoquinoline-5,8-quinone], the “Percent Inhibition of SRS-A Release” value in the data set with SRS-A release (setting [4]) is listed as 61%.

As for `O=C1C(Nc2ccc(Cl)cc2)=CC(=O)c2ncccc21` [6-(4-chloroanilino)quinoline-5,8-quinone], the inhibition at 10 µM in the data set on SRS-A release (setting [2]) came out at 23%. In the data set on SRS-A release (setting [4]), the inhibition at 30 µM is 68%.

Regarding `COc1cccc(NC2=CC(=O)c3ncccc3C2=O)c1` [Example 21, 6-(3-methoxyanilino)quinoline-5,8-quinone], the inhibition at 10 µM in the data set on SRS-A release (setting [2]) came out at 72%.

Turning to `O=C1C(Nc2ccc([N+](=O)[O-])cc2)=CC(=O)c2ncccc21` [Example 9, 6-(4-nitroanilino)quinoline-5,8-quinone], the inhibition at 10 µM with SRS-A release (setting [2]) came to 41%.

Take `O=C1C(Nc2ccccc2F)=CC(=O)c2ncccc21` [Example 17, 6-(2-flouroanilino)quinoline-5,8-quinone]: in the data set on SRS-A release (setting [2]), the inhibition at 10 µM came to 71%. In the data set on SRS-A release (setting [5]), the inhibition at 1 µM amounted to 0%.

With `COc1ccc(NC2=CC(=O)c3ncccc3C2=O)cc1` [Example 8, 6-(4-methoxyanilino)quinoline-5,8-quinone], the inhibition at 10 µM in the data set with SRS-A release (setting [2]) amounted to 32%.

For the compound `CCCN(C1=CC(=O)c2ncccc2C1=O)c1ccccc1` [6-(N--propylanilino)quinoline-5,8-quinone], the inhibition at 10 µM with SRS-A release (setting [2]) was determined as 28%. In the data set on SRS-A release (setting [4]), the inhibition at 30 µM was 39%.

On to `O=C1C(N2CCOCC2)=CC(=O)c2ncccc21` [6-morpholinylquinoline-5,8-quinone], for which the inhibition at 10 µM in the data set on SRS-A release (setting [2]) amounted to 28%. For the same compound, the inhibition at 30 µM in the data set with SRS-A release (setting [4]) is 63%.

With `COc1ccccc1NC1=CC(=O)c2ncccc2C1=O` [6-(2-methoxyanilino)quinoline-5,8-quinone], the inhibition at 30 µM with SRS-A release (setting [4]) was determined as 38%. Further, the inhibition at 3 µM in the data set with SRS-A release (setting [3]) is 0%.

Consider `CNC1=CC(=O)c2ncccc2C1=O` [6-methylaminoquinoline-5,8-quinone], for which the inhibition at 10 µM in the data set on SRS-A release (setting [2]) is 28%. For the same compound, the inhibition at 30 µM with SRS-A release (setting [4]) stood at 51%.

For the compound `O=C1C(N2CCCCC2)=CC(=O)c2ncccc21` [6-piperidinylquinoline-5,8-quinone], in the data set on SRS-A release (setting [2]), the inhibition at 10 µM came to 68%.

As for `O=C1C(NC2CCCCC2)=CC(=O)c2ncccc21` [Example 14, 6-cyclohexylaminoquinoline-5,8-quinone], the inhibition at 10 µM in the data set on SRS-A release (setting [2]) came out at 53%. Further, the inhibition at 1 µM in the data set with SRS-A release (setting [5]) stood at 0%.

Take `O=C1C(Nc2cccc(C(F)(F)F)c2)=CC(=O)c2ncccc21` [Example 24, 6-(3-triflouromethylanilino)quinoline-5,8-quinone]: the inhibition at 10 µM in the data set with SRS-A release (setting [2]) was 53%.

On to `CN(C)CCNC1=CC(=O)c2ncccc2C1=O` [Example 18, 6-dimethylaminoethylaminoquinoline-5,8-quinone], for which the inhibition at 10 µM with SRS-A release (setting [2]) was 40%.

`O=C1C(Nc2ccccc2Cl)=CC(=O)c2ncccc21` [6-(2-chloroanilino)quinoline-5,8-quinone]: in the data set on SRS-A release (setting [5]), the inhibition at 1 µM is 24%. The inhibition at 30 µM with SRS-A release (setting [4]) turned out to be 78%. Further, the inhibition at 3 µM in the data set with SRS-A release (setting [3]) is 23%.

Turning to `O=C1C(Nc2ccc(O)cc2)=CC(=O)c2ncccc21` [Example 13, 6-(4-hydroxyanilino)quinoline-5,8-quinone], the inhibition at 10 µM in the data set on SRS-A release (setting [2]) worked out at 58%.

As to `CN(C1=CC(=O)c2ncccc2C1=O)c1ccccc1` [6-(N--methylanilino)quinoline-5,8-quinone], the inhibition at 10 µM in the data set on SRS-A release (setting [2]) was 80%. Further, the inhibition at 1 µM with SRS-A release (setting [5]) came out at 16%. Also, in the data set with SRS-A release (setting [3]), the inhibition at 3 µM was found to be 27%.

Consider `COc1cc(N)c2ncccc2c1N` [Example 1, 5,8-diamino-6-methoxyquinoline], for which the pKa in data set [1] came to 5.08.

These data come from US4492704A, “Quinoline quinones and anti-asthmatic use thereof” (Eli Lilly and Company, priority 1982, dated 1985).
